Experimental findings from patent US12011444B2, “N-substituted indole derivatives as PGE2 receptor modulators” (Idorsia Pharmaceuticals Ltd, priority 2015, dated 2024) are described below.

What is called IC50 is the point on the concentration scale where inhibition reaches its midpoint. A high value points to a need for much substance.

In test [1] the target is T1, EP2 (Homo sapiens (Human), UniProt P43116). Briefly: cell-based.
Source text: (§1) Human tumor cell lines expressing endogenously either EP4 or EP2 are used and cAMP accumulation in cells upon PGE2 stimulation is monitored. SF295 glioblastoma cells express high endogenous EP2 and no EP4, whereas BT549 breast cancer cells, express high endogenous EP4 levels and very low EP2 levels.
(§2) As a detection method for cAMP the HTRF (homogeneous time resolved fluorescence) Cisbio kit (HTRF cAMP dynamic 2 kit 20′000 tests Cisbio Cat. #62AM4PEC) was used, which is based on a competitive immunoassay using a Cryptate-labeled anti-cAMP antibody and d2-labeled cAMP. Native cAMP produced by cells or unlabeled cAMP (for the standard curve) compete with exogenously added d2-labeled cAMP (acceptor) for binding to monoclonal anti-cAMP-Eu3+Cryptate (donor). A FRET signal (Fluorescence Resonance Energy Transfer) is obtained only if the labeled anti-cAMP antibody binds the d2 labelled cAMP, thus the specific signal (i.e. energy transfer) is inversely proportional to the concentration of cAMP in the standard or sample.
(§3) The SF295 cells (NCI/No. 0503170) are detached from culture dishes with a cell dissociation buffer (Invitrogen, 13151-014), and collected in growing medium (GM: RPM11640 (Invitrogen 21875)/10% FCS, 1% Penicilin/streptomycin). Cells are counted washed and resuspended in assay buffer (AB; HBSS, 20 mM HEPES, 0.2% BSA; 2 mM IBMX). 4,000 cells in 5 μl of AB are seeded per well of a small volume 384 well plate (black with flat bottom, Greiner 784076).
(§4) PGE2 (Cayman 14010, stock solution: 75 μM in DMSO) is used as agonist at 75 nM final concentration, corresponding to EC80.
(§5) Two point five microliters of diluted compounds are transferred into the assay plate. Plate is pre-incubated 45 minutes at room temperature. Subsequently, 2.5 microliters of PGE2 (final conc. 75 nM) are transferred into the assay plate. Plate is incubated 30 minutes at room temperature. Five μl of each donor (anti-cAMP cryptate) and acceptor (cAMP-d2) are added and the plate is incubated another hour at room temperature in the dark and then read using a BMG LABTECH PHERAstar reader (Excitation: 337 nm, Emission: 620 and 665 nm).
(§6) The obtained Delta F (fluorescence) values (665 nm/620 nM) are converted into % cAMP values using the measurements of the cAMP calibrator provided in the kit. For each compound concentration the percentage of cAMP compared to DMSO control value as average±STDEV (each concentration is measured in duplicate) is calculated.
(§7) IC50 values and curves are generated with XLfit software (IDBS) using Dose-Response One Site model 203. When compounds were measured multiple times, mean values are given.
The target of test [2] is EP4 (Homo sapiens (Human), UniProt P35408). Briefly: hEP4 cAMP assay (BT549 breast cancer cells, HTRF cAMP). It counts as cell-based. As to conditions: antagonistic activity; mean values where measured multiple times. On the procedure: Plate is pre-incubated 45 minutes at room temperature. Subsequently, 2.5 microliters of PGE2 (final conc. 6 nM) are transferred into the assay plate. Plate is incubated 30 minutes at room temperature.
EP4, sequence (P35408 whole entry): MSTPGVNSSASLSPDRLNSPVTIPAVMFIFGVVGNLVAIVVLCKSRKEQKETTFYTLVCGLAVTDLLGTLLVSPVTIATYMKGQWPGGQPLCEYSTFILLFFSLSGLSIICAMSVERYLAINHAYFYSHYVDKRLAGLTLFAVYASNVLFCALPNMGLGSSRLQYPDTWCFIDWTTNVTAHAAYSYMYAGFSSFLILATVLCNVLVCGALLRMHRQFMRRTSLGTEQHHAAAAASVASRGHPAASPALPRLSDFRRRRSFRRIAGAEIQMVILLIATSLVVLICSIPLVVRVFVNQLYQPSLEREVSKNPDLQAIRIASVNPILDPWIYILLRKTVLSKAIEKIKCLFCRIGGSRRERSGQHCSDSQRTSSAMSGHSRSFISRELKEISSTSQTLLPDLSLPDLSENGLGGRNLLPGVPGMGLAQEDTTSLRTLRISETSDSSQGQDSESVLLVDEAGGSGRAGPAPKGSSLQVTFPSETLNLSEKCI

The target of test [3] is T1, EP2.
Source text: as §1, §2, §3, §4, §5, §6, §7

Where two headings read alike, the source gives them in different places.

T1 sequence (P43116 whole entry): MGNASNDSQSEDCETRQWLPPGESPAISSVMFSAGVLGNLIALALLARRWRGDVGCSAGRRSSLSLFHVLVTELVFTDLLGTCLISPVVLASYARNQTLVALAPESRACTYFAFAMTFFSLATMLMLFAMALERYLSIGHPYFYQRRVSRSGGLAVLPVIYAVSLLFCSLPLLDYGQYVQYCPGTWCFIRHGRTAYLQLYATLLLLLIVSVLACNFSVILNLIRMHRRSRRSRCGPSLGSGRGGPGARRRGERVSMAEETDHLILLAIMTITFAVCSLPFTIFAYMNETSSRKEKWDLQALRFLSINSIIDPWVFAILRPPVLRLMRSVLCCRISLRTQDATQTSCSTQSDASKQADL

For `CCOc1cc(-c2cc(NCC(C)n3c(C)cc4c(OC)ccc(F)c43)ncn2)ccc1C(=O)O` (racemic) [Example 794, rac-2-Ethoxy-4-{6-[2-(7-fluoro-4-methoxy-2-methyl-indol-1-yl)-propylamino]-pyrimidin-4-yl}-benzoic acid], the half-inhibitory concentration (IC50) in test [1] came out at 309 nM; in test [2] it was 798 nM.
Turning to `COc1ccc(F)c2c1cc(C)n2C(C)CNc1cc(-c2ccc(C(=O)O)c(CC(C)C)c2)ncn1` (racemic) [Example 795, rac-4-{6-[2-(7-Fluoro-4-methoxy-2-methyl-indol-1-yl)-propylamino]-pyrimidin-4-yl}-2-isobutyl-benzoic acid], the IC50 came out at 85 nM in test [1] and 306 nM in test [2].
Taken in the same sequence, the figures for `COc1cccc2c1cc(C)n2CCNc1cc(-c2ccc3c(c2)C(CC(C)C)NC3=O)ncn1` (racemic) [compound 461] were 24 nM and 224 nM.
Taken in the same sequence, the figures for `CCCC1NC(=O)c2ccc(-c3cc(NCCn4c(C)cc5c(OC)ccc(F)c54)ncn3)cc21` (racemic) [compound 465] were 17 nM and 75 nM.
Taken in the same sequence, the figures for `Cc1ccc(F)c2c1cc(C)n2CCNc1cc(-c2ccc3c(c2)C(CC(C)C)NC3=O)ncn1` (racemic) [compound 468] were 59 nM and 264 nM.
`COc1ccc(F)c2c1cc(C)n2CCNc1cc(-c2ccc3c(c2)C(CC(C)C)NC3=O)ncn1` (racemic) [compound 474]: the IC50 in test [1] stood at 22 nM; in test [2] it was 224 nM.
Taken in the same sequence, the figures for `CCOc1cc(-c2cc(NCCn3c(C)cc4c(OC)ccc(F)c43)ncn2)ccc1C(O)C(F)(F)F` (racemic) [compound 571] were 149 nM and 511 nM.
`Cc1ccc(F)c2c1cc(C)n2CCNc1cc(-c2ccc3c(c2)OCCO3)ncn1` [compound 740]: the IC50 came out at 183 nM in test [3] and 655 nM in test [2].
As for `Cc1ccc(F)c2c1cc(C)n2CCNc1cc(-c2ccc(-n3cncn3)cc2)ncn1` [compound 741, [2-(7-Fluoro-2,4-dimethyl-indol-1-yl)-ethyl]-[6-(4-[1,2,4]triazol-1-yl-phenyl)-pyrimidin-4-yl]-amine], the results for the IC50 in test [3] and in test [2] were 37 nM and 505 nM, respectively.
Taken in the same sequence, the figures for `COc1cc(F)cc2c1cc(C)n2CCNc1cc(-c2ccc(-c3ccno3)cc2)ncn1` [compound 743, [2-(6-Fluoro-4-methoxy-2-methyl-indol-1-yl)-ethyl]-[6-(4-isoxazol-5-yl-phenyl)-pyrimidin-4-yl]-amine] were 10 nM and 315 nM.
Taken in the same sequence, the figures for `COc1ccc(F)c2c1cc(C)n2CCNc1cc(-c2ccc(-c3ccno3)cc2)ncn1` [compound 744, [2-(7-Fluoro-4-methoxy-2-methyl-indol-1-yl)-ethyl]-[6-(4-isoxazol-5-yl-phenyl)-pyrimidin-4-yl]-amine] were 8 nM and 251 nM.
Taken in the same sequence, the figures for `COc1cc(F)c(F)c2c1cc(C)n2CCNc1cc(-c2ccc(-c3ccno3)cc2)ncn1` [compound 745, [2-(6,7-Difluoro-4-methoxy-2-methyl-indol-1-yl)-ethyl]-[6-(4-isoxazol-5-yl-phenyl)-pyrimidin-4-yl]-amine] were 25 nM and 840 nM.
